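In this assay, cells in 96-well plates receive the compound at five concentrations for 48 hours. Endpoints are linearly interpolated between the surrounding concentrations. TGI: concentration producing complete growth inhibition.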 Where a SMILES comes first, the peptide text is derived from it. [ ]: non-standard residue; d: D form. Hiv = CC(C)[C@H](O)C(=O)O
How the values were obtained:
Experiment in all cases: DTP human tumour cell line panel, 48 h
A498 renal = system: A498 renal
MDA-MB-231 breast = system: MDA-MB-231 breast
TK-10 renal = system: TK-10 renal
COLO 205 colon = system: COLO 205 colon
OVCAR-4 ovarian = system: OVCAR-4 ovarian
MDA-MB-435 = system: MDA-MB-435
K-562 leukemia = system: K-562 leukemia
MOLT-4 leukemia = system: MOLT-4 leukemia
MALME-3M melanoma = system: MALME-3M melanoma
NCI/ADR-RES ovarian = system: NCI/ADR-RES ovarian
A549 NSCLC = system: A549 NSCLC
786-0 renal = system: 786-0 renal
SF-539 CNS = system: SF-539 CNS
SF-295 CNS = system: SF-295 CNS
HL-60(TB) leukemia = system: HL-60(TB) leukemia
HCT-15 colon = system: HCT-15 colon
IGROV1 ovarian = system: IGROV1 ovarian
HOP-62 NSCLC = system: HOP-62 NSCLC
UACC-257 melanoma = system: UACC-257 melanoma
SN12C renal = system: SN12C renal
EKVX NSCLC = system: EKVX NSCLC
OVCAR-5 ovarian = system: OVCAR-5 ovarian
ACHN renal = system: ACHN renal
OVCAR-8 ovarian = system: OVCAR-8 ovarian
T-47D breast = system: T-47D breast
DU-145 prostate = system: DU-145 prostate
NCI-H226 lung = system: NCI-H226 lung
HCT-116 colon = system: HCT-116 colon
NCI-H460 lung = system: NCI-H460 lung
UO-31 renal = system: UO-31 renal
CCRF-CEM leukemia = system: CCRF-CEM leukemia
SK-MEL-5 melanoma = system: SK-MEL-5 melanoma
SNB-19 CNS = system: SNB-19 CNS
U251 CNS = system: U251 CNS
SW-620 colon = system: SW-620 colon
CAKI-1 renal = system: CAKI-1 renal
KM12 colon = system: KM12 colon
NCI-H23 lung = system: NCI-H23 lung
SNB-75 CNS = system: SNB-75 CNS
SK-OV-3 ovarian = system: SK-OV-3 ovarian
MCF7 breast = system: MCF7 breast
OVCAR-3 ovarian = system: OVCAR-3 ovarian
HCC-2998 colon = system: HCC-2998 colon
RXF 393 renal = system: RXF 393 renal
BT-549 breast = system: BT-549 breast
UACC-62 melanoma = system: UACC-62 melanoma
SK-MEL-28 melanoma = system: SK-MEL-28 melanoma
MDA-N = system: MDA-N
RPMI-8226 leukemia = system: RPMI-8226 leukemia
LOX IMVI melanoma = system: LOX IMVI melanoma
SF-268 CNS = system: SF-268 CNS
SR leukemia = system: SR leukemia
HOP-92 NSCLC = system: HOP-92 NSCLC
SK-MEL-2 melanoma = system: SK-MEL-2 melanoma
HS 578T breast = system: HS 578T breast
PC-3 prostate = system: PC-3 prostate
HT29 colon = system: HT29 colon
M14 melanoma = system: M14 melanoma

Structure (SMILES): O=c1c2n[nH]nc2nc2n1CC(c1ccccc1)S2 (stereo not drawn)
- TGI (A498 renal): > 100 µM
- TGI (MDA-MB-231 breast): > 100 µM
- TGI (TK-10 renal): > 100 µM
- TGI (COLO 205 colon): > 100 µM
- TGI (OVCAR-4 ovarian): > 100 µM
- TGI (MDA-MB-435): > 100 µM
- TGI (K-562 leukemia): > 100 µM
- TGI (MOLT-4 leukemia): > 100 µM
- TGI (MALME-3M melanoma): > 100 µM
- TGI (NCI/ADR-RES ovarian): > 100 µM
- TGI (A549 NSCLC): > 100 µM
- TGI (786-0 renal): > 100 µM
- TGI (SF-539 CNS): > 100 µM
- TGI (SF-295 CNS): > 100 µM
- TGI (HL-60(TB) leukemia): > 100 µM
- TGI (HCT-15 colon): > 100 µM
- TGI (IGROV1 ovarian): > 100 µM
- TGI (HOP-62 NSCLC): > 100 µM
- TGI (UACC-257 melanoma): > 100 µM
- TGI (SN12C renal): > 100 µM
- TGI (EKVX NSCLC): > 100 µM
- TGI (OVCAR-5 ovarian): > 100 µM
- TGI (ACHN renal): > 100 µM
- TGI (OVCAR-8 ovarian): > 100 µM
- TGI (T-47D breast): > 100 µM
- TGI (DU-145 prostate): > 100 µM
- TGI (NCI-H226 lung): > 100 µM
- TGI (HCT-116 colon): > 100 µM
- TGI (NCI-H460 lung): > 100 µM
- TGI (UO-31 renal): > 100 µM
- TGI (CCRF-CEM leukemia): > 100 µM
- TGI (SK-MEL-5 melanoma): > 100 µM
- TGI (SNB-19 CNS): > 100 µM
- TGI (U251 CNS): > 100 µM
- TGI (SW-620 colon): > 100 µM
- TGI (CAKI-1 renal): 77.6 µM
- TGI (KM12 colon): > 100 µM
- TGI (NCI-H23 lung): > 100 µM
- TGI (SNB-75 CNS): > 100 µM
- TGI (SK-OV-3 ovarian): > 100 µM
- TGI (MCF7 breast): > 100 µM
- TGI (OVCAR-3 ovarian): > 100 µM
- TGI (HCC-2998 colon): > 100 µM
- TGI (RXF 393 renal): 94.9 µM
- TGI (BT-549 breast): > 100 µM
- TGI (UACC-62 melanoma): > 100 µM
- TGI (SK-MEL-28 melanoma): > 100 µM
- TGI (MDA-N): > 100 µM
- TGI (RPMI-8226 leukemia): > 100 µM
- TGI (LOX IMVI melanoma): > 100 µM
- TGI (SF-268 CNS): > 100 µM

Structure (SMILES): CC(C)[C@@H]1OC(=O)[C@@H](C)NC(=O)[C@@H]2CCCN2C1=O (cyclo([Hiv]-Pro-[dA]))
- TGI (A498 renal): > 100 µM
- TGI (MDA-MB-231 breast): > 100 µM
- TGI (TK-10 renal): > 100 µM
- TGI (COLO 205 colon): > 100 µM
- TGI (OVCAR-4 ovarian): > 100 µM
- TGI (MDA-MB-435): > 100 µM
- TGI (MOLT-4 leukemia): > 100 µM
- TGI (MALME-3M melanoma): > 100 µM
- TGI (NCI/ADR-RES ovarian): > 100 µM
- TGI (A549 NSCLC): > 100 µM
- TGI (786-0 renal): > 100 µM
- TGI (SF-539 CNS): > 100 µM
- TGI (SR leukemia): > 100 µM
- TGI (HOP-92 NSCLC): > 100 µM
- TGI (SF-295 CNS): > 100 µM
- TGI (HL-60(TB) leukemia): > 100 µM
- TGI (HCT-15 colon): > 100 µM
- TGI (IGROV1 ovarian): > 100 µM
- TGI (HOP-62 NSCLC): > 100 µM
- TGI (UACC-257 melanoma): > 100 µM
- TGI (SN12C renal): > 100 µM
- TGI (EKVX NSCLC): > 100 µM
- TGI (OVCAR-5 ovarian): > 100 µM
- TGI (SK-MEL-2 melanoma): > 100 µM
- TGI (ACHN renal): > 100 µM
- TGI (OVCAR-8 ovarian): > 100 µM
- TGI (HS 578T breast): > 100 µM
- TGI (T-47D breast): > 100 µM
- TGI (DU-145 prostate): > 100 µM
- TGI (NCI-H226 lung): > 100 µM
- TGI (PC-3 prostate): > 100 µM
- TGI (HT29 colon): > 100 µM
- TGI (HCT-116 colon): > 100 µM
- TGI (NCI-H460 lung): > 100 µM
- TGI (CCRF-CEM leukemia): > 100 µM
- TGI (SK-MEL-5 melanoma): > 100 µM
- TGI (SNB-19 CNS): > 100 µM
- TGI (SW-620 colon): > 100 µM
- TGI (CAKI-1 renal): > 100 µM
- TGI (KM12 colon): > 100 µM
- TGI (M14 melanoma): > 100 µM
- TGI (NCI-H23 lung): > 100 µM
- TGI (SK-OV-3 ovarian): > 100 µM
- TGI (MCF7 breast): > 100 µM
- TGI (OVCAR-3 ovarian): > 100 µM
- TGI (HCC-2998 colon): > 100 µM
- TGI (RXF 393 renal): > 100 µM
- TGI (UACC-62 melanoma): > 100 µM
- TGI (SK-MEL-28 melanoma): > 100 µM
- TGI (MDA-N): > 100 µM
- TGI (LOX IMVI melanoma): > 100 µM
- TGI (SF-268 CNS): > 100 µM
